As usually defined, the IC50 is the concentration at which inhibition is half-maximal. By Ki is commonly meant the dissociation constant of the complex between target and ligand, obtained from inhibition or displacement.

SMILES strings stand for the structures. In brackets after ≈: the same amount, converted by molar mass.

A short description of series [1]: Selectivity index, ratio of IC50 for cytotoxicity against African green monkey Vero cells to IC50 for antiplasmodial activity against D-sorbitol synchronized chloroquine-resistant Plasmodium falciparum W2. The series is classed as toxicity, cell-based. The note with it: read-out: Ratio IC50.
For series [2], the target named is T1, Cholinesterase (Homo sapiens, UniProt P06276). Put plainly: Inhibition of human BChE.
Series [3] addresses T2, Acetylcholinesterase (Homo sapiens, UniProt P22303). Put plainly: Inhibition of human AChE.
Series [4] deals with Cholinesterases; ACHE & BCHE (Homo sapiens) (UniProt P06276+P22303). The experiment in a line: Selectivity ratio of IC50 for inhibition of human BchE to IC50 for inhibition of recombinant human AchE. It is filed as protein assay.
Series [5] addresses T2, Acetylcholinesterase. The experiment in a line: Inhibition of recombinant human AchE by Ellman's reagent based spectrophotometric analysis. (Ellman's reagent forms a yellow product with free thiols.)
Series [6] concerns the target T1, Cholinesterase. The experiment in a line: Inhibition of human BchE by Ellman's reagent based spectrophotometric analysis.
Series [7] in a line: Cytotoxicity against human A375P cells assessed as cell viability incubated for 72 hrs by alamar blue reagent based assay. It is filed as functional.
The subject of series [8] is A549. The experiment in a line: Cytotoxicity against human A549 cells incubated for 24 hrs by MTT assay. It is filed as functional, cell-based. The note with it: A549, 24 h.
The next series relates to Plasmodium falciparum. The experiment in a line: Antiplasmodial activity against chloroquine sensitive Plasmodium falciparum NF54 incubated for 48 hrs by lactate dehydrogenase assay. It is filed as functional, organism-based. To be noted: NF54, Erythrocyte.
For another series, the system named is Aspergillus niger. Put plainly: Antifungal activity Aspergillus niger MTCC 282 by agar streak dilution method. It is filed as organism-based.
Another series deals with Candida albicans. The experiment in a line: Antifungal activity against Candida albicans MTCC 183 by agar streak dilution method. It is filed as functional.
The nature of series [9]: Antiproliferative activity against human AG01522 cells assessed as reduction in cell viability incubated for 24 hrs by MTT assay. It is filed as functional, cell-based. To be noted: AG01522, 24 h. In general terms: Tetrazolium assays rely on reduction of a dye to a coloured formazan, in cell work by metabolically active cells.
A further series concerns HT-29. The experiment in a line: Antiproliferative activity against human HT-29 cells assessed as reduction in cell viability incubated for 24 hrs by MTT assay. It is filed as functional, cell-based. The note with it: HT-29, 24 h.
In series [10] the test system is MCF7. Put plainly: Antiproliferative activity against human MCF7 cells assessed as reduction in cell viability incubated for 24 hrs by MTT assay. The series is classed as functional, cell-based. To be noted: MCF7, 24 h.
Series [11] concerns A549. The experiment in a line: Antiproliferative activity against human A549 cells assessed as reduction in cell viability incubated for 24 hrs by MTT assay. The series is classed as functional, cell-based. To be noted: A549, 24 h.
Series [12] deals with Cholinesterase (Equus caballus, UniProt P81908). The experiment in a line: Inhibition of equine serum BChE using […] as substrate measured after 2 mins by Ellman's reagent based spectrophotometric analysis.
For series [13], the target named is Acetylcholinesterase (Electrophorus electricus, UniProt O42275). The experiment in a line: Inhibition of electric eel AChE using […] as substrate measured after 2 mins by Ellman's reagent based spectrophotometric analysis.
The test system of another series is HeLa. Put plainly: Anticancer activity against human HeLa cells. The series is classed as functional, cell-based.
In series [14] the test system is MCF7. The experiment in a line: Anticancer activity against human MCF7 cells. It is filed as functional, cell-based.
A further series has as its system Enterococcus faecalis. The experiment in a line: Antibacterial activity against Enterococcus faecalis ATCC13047. The series is classed as functional.
A further series has as its system Proteus vulgaris. Put plainly: Antibacterial activity against Proteus vulgaris ATCC6380. The series is classed as functional.
Series [15] relates to Staphylococcus epidermidis. Put plainly: Antibacterial activity against Staphylococcus epidermidis. It is filed as functional.
The next series relates to Pseudomonas mevalonii. The experiment in a line: Antibacterial activity against Pseudomonas mevalonii. The note with it: Pseudomonas sp. 'mevalonii'. It is filed as functional.
In series [16] the test system is Mycolicibacterium smegmatis. Put plainly: Antibacterial activity against Mycobacterium smegmatis. The series is classed as functional.
Series [17] concerns Bacillus subtilis. Put plainly: Antibacterial activity against Bacillus subtilis ATCC19659. The series is classed as functional.
For series [18], the system named is Escherichia coli. Put plainly: Antibacterial activity against Escherichia coli ATCC25922. The series is classed as functional.
The test system of a further series is Klebsiella oxytoca. Put plainly: Antibacterial activity against Klebsiella oxytoca ATCC8724. It is filed as functional.
In series [19] the test system is Pseudomonas aeruginosa. Put plainly: Antibacterial activity against Pseudomonas aeruginosa. The series is classed as functional.
Series [20] relates to Staphylococcus aureus. Put plainly: Antibacterial activity against Staphylococcus aureus. It is filed as functional.
The test system of series [21] is Staphylococcus aureus. Put plainly: Antibacterial activity against Staphylococcus aureus MTCC 96 by agar streak dilution method. The series is classed as functional.
In series [22] the test system is Escherichia coli. The experiment in a line: Antibacterial activity against Escherichia coli MTCC 739 by agar streak dilution method. It is filed as functional.
The subject of series [23] is Bacillus subtilis. Put plainly: Antibacterial activity against Bacillus subtilis MTCC 619 by agar streak dilution method. It is filed as functional.
Series [24] has as its system Pseudomonas aeruginosa. The experiment in a line: Antibacterial activity against Pseudomonas aeruginosa MTCC 741 by agar streak dilution method. The series is classed as functional.
A further series relates to SMMC-7721. Put plainly: Antiproliferative activity against human SMMC-7721 cells assessed as reduction in cell proliferation incubated for 24 hrs by MTT assay. The series is classed as functional, cell-based. The note with it: SMMC-7721, 24 h.
A further series deals with HepG2. The experiment in a line: Antiproliferative activity against human HepG2 cells assessed as reduction in cell proliferation incubated for 24 hrs by MTT assay. The series is classed as functional, cell-based. To be noted: HepG2, 24 h.

T2 sequence (P22303 whole entry): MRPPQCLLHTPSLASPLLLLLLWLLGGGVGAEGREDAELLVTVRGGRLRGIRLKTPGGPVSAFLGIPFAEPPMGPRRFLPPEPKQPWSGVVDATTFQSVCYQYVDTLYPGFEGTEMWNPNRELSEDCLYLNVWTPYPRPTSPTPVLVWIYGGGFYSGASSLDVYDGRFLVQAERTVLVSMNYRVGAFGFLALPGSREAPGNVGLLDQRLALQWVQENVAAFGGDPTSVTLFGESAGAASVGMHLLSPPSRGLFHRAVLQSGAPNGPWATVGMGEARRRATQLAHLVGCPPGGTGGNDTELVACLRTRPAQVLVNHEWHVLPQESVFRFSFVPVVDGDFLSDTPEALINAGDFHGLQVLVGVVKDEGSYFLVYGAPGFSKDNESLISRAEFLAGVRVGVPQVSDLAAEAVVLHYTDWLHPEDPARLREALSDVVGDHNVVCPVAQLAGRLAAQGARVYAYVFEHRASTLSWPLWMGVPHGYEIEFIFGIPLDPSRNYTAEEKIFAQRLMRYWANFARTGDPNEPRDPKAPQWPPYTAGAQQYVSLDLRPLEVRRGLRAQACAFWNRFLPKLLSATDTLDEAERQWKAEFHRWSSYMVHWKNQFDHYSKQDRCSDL
T1 sequence (P06276 whole entry): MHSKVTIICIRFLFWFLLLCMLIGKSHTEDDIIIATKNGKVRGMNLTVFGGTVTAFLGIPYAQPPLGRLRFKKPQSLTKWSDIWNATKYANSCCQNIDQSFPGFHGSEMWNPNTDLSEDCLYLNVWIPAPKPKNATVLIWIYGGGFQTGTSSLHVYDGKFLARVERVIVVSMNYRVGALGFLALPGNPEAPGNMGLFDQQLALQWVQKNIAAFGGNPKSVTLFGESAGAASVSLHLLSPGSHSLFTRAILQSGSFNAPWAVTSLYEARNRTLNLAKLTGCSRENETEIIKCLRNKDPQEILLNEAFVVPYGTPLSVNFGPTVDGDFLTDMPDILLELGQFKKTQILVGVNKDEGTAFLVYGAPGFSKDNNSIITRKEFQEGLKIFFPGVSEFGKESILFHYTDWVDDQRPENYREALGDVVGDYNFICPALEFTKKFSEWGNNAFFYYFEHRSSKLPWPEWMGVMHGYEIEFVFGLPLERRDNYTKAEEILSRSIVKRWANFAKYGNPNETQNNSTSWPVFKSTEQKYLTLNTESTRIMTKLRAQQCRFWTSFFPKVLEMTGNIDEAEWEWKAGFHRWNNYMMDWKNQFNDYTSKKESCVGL
Sequence of Cholinesterase (Equus caballus, UniProt P81908) (P81908 whole entry): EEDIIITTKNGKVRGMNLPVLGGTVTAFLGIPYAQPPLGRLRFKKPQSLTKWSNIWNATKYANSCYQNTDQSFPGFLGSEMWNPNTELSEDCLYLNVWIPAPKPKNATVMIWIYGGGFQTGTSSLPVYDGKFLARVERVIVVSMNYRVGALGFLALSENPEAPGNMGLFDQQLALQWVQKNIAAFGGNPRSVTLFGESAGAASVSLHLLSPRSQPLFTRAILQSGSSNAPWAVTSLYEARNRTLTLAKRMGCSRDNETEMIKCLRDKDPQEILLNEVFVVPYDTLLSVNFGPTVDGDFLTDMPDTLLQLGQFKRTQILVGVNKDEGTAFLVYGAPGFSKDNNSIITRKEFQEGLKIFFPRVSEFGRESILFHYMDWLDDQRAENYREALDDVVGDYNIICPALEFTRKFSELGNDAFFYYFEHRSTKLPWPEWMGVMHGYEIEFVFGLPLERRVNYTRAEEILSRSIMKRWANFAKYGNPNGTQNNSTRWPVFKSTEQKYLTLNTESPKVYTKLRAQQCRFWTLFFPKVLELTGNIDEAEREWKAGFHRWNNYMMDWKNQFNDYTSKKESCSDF
Sequence of Acetylcholinesterase (Electrophorus electricus, UniProt O42275) (O42275 whole entry): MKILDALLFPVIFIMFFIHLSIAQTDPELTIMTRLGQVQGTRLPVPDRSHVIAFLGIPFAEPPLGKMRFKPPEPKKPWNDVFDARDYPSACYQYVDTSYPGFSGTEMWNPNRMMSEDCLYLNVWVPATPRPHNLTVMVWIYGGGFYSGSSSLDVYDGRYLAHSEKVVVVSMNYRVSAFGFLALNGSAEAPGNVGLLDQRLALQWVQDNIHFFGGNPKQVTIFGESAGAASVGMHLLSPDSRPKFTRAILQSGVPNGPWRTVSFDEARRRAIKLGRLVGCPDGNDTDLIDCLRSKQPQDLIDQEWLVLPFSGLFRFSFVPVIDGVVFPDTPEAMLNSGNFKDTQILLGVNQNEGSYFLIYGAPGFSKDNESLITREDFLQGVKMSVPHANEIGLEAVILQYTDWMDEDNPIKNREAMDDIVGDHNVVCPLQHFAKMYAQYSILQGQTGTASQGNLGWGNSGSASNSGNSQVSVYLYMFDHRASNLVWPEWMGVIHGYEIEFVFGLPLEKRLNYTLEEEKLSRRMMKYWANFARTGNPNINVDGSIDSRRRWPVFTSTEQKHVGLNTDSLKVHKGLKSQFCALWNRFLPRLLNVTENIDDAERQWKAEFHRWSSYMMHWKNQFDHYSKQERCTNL
Sequence of Cholinesterases; ACHE & BCHE (Homo sapiens) (P06276 whole entry, looked up): as the sequence (P06276 whole entry) above
Sequence of Cholinesterases; ACHE & BCHE (Homo sapiens) (P22303 whole entry, looked up): as the sequence (P22303 whole entry) above

For the compound `CCN(CC)c1ccc2c(c1)C(=O)N(CCC(=O)NCCNc1ccnc3cc(Cl)ccc13)C2=O`, the selectivity ratio in series [1] was above 2000.
For `COn1cc(CCNC(=S)NCCCCCNc2c3c(nc4ccccc24)CCCC3)c2ccccc21`, the IC50 against Cholinesterase [2] turned out to be 0.039 µM; at Acetylcholinesterase [3], 0.07 µM.
For the compound `Clc1ccc2c(Nc3cccc4c(NCCC56CC7CC(CC(C7)C5)C6)cccc34)ccnc2c1`, the Ratio IC50 in series [4] worked out at 5.8.
`Clc1ccc2c(NCCNC34CC5CC(CC(C5)C3)C4)ccnc2c1`: the values for the Ki at Acetylcholinesterase [5] and at Cholinesterase [6] were 1.6 µM and 0.92 µM, respectively.
Consider `CN(CCCCN(C)CCCNc1ccnc2cc(Cl)ccc12)CCCNc1ccnc2cc(Cl)ccc12`, for which the IC50 in series [7] was 0.269 µM.
In the case of `Cc1cccc2c(Nc3cccc4ncccc34)cc(Cl)nc12`, the IC50 in the series with A549 [8] was 29.4 µM.
`O=C(/C=C/c1ccccc1Br)c1ccc(S(=O)(=O)NCCCNc2ccnc3cc(Cl)ccc23)cc1` registered an IC50 in the series on Plasmodium falciparum of 0.1 µM.
In the case of `CCCOc1ccc(/C=N/Nc2cc(C)nc3ccc(Cl)cc23)cc1`, the MIC with Aspergillus niger is 25 mg/L (≈ 70.7 µM); in the series on Candida albicans, 12.5 mg/L (≈ 35.3 µM).
Consider `O=C1c2ccc(N3CCN(CCO)CC3)cc2C(=O)N1CCCNc1ccnc2cc(Cl)ccc12`, for which the selectivity ratio in series [1] was above 4200.
Turning to `O=c1cc(CCl)n(CCCNc2ccnc3cc(Cl)ccc23)cc1OCc1ccccc1`, the IC50 amounted to 2.87 µM in series [9], 1.41 µM with HT-29, 1.26 µM in the series with MCF7 [10] and 0.81 µM in the series with A549 [11].
`COc1cc(/C=C/C(=O)NCCNc2cc(C)nc3ccccc23)ccc1OCc1ccc(Br)cc1`: the IC50 against Cholinesterase [12] was 1.18 µM; on Acetylcholinesterase [13], 0.62 µM.
For `C[C@H]1[C@H](C)CC[C@]2(C(=O)OCCNc3ccnc4cc(Cl)ccc34)CC[C@]3(C)C(=CC[C@@H]4[C@@]5(C)CC[C@H](O)C(C)(C)[C@@H]5CC[C@]43C)[C@H]12`, the IC50 in the series with HeLa came to 105 mg/L (≈ 158 µM); in the series with MCF7 [14], 48.2 mg/L (≈ 72.8 µM).
As to `CC1(C)CC[C@]2(C(=O)OCCNc3ccnc4ccc(Cl)cc34)CC[C@]3(C)C(=CC[C@@H]4[C@@]5(C)CC[C@H](O)C(C)(C)[C@@H]5CC[C@]43C)[C@@H]2C1`, the MIC was 1250 mg/L (≈ 1890 µM) in the series on Enterococcus faecalis; 2500 mg/L (≈ 3780 µM) against Proteus vulgaris; 1250 mg/L (≈ 1890 µM) in series [15]; 2500 mg/L (≈ 3780 µM) in the series with Pseudomonas mevalonii; 1250 mg/L (≈ 1890 µM) in [16]; 2500 mg/L (≈ 3780 µM) in the series with Bacillus subtilis [17]. Moreover, the MIC was found to be 2500 mg/L (≈ 3780 µM) against Escherichia coli [18], 1250 mg/L (≈ 1890 µM) in the series with Klebsiella oxytoca, 2500 mg/L (≈ 3780 µM) with Pseudomonas aeruginosa [19] and 1250 mg/L (≈ 1890 µM) against Staphylococcus aureus [20].
As for `CCCCCCCCOc1cc(/C=N/Nc2cc(C)nc3ccc(Cl)cc23)cc(OCCCCCCCC)c1OCCCCCCCC`, the MIC in the series with Staphylococcus aureus [21] came to 6.25 mg/L (≈ 9.19 µM); against Escherichia coli [22], 12.5 mg/L (≈ 18.4 µM); in the series with Bacillus subtilis [23] it was 25 mg/L (≈ 36.7 µM); in the series on Pseudomonas aeruginosa [24], 6.25 mg/L (≈ 9.19 µM).
In the case of `Clc1ccc2c(NCCCCCCCCNC34CC5CC(CC(C5)C3)C4)ccnc2c1`, the Ki at Acetylcholinesterase [5] is 0.075 µM; at Cholinesterase [6], 0.091 µM.
In the case of `COc1ccc(/C=N/NC(=O)c2ccc(Nc3ccnc4ccccc34)cc2)cc1OC`, the IC50 in the series with SMMC-7721 was 9.6 µM; with HepG2, 12.6 µM.
